Results as given in US20250276942A1, “UREASE INHIBITOR FORMULATION FOR USE IN UREA GRANULATION PROCESS” (BASF SE, priority 2021, published 2025).

Columns and labels:
[1] = Flashpoint of materials; assay type: physicochemical
Procedure: In a preferred embodiment A2 of the first aspect, the solvent (B) has a flashpoint (determined according to ISO 2719:2016) of more than 130° C., preferably more than 135° C., and in particular more than 140° C.

[2] = NxPT recovery on closed storage of urea treated in the melt with urease inhibitor formulations in different solvents (Example 2); assay type: physicochemical; conditions: 550 ppm NxPT added to urea melt; closed storage at 30° C. and 40° C.; 2 and 6 months; HPLC DIN_EN_16651
Procedure: 900 g urea+20 mL water were added to a metal pan and heated to 135° C.+1−5° C. under continuous stirring using an overhead stirrer. When all urea was melted, the respective amount of urease inhibitor formulation was added to the urea melt to achieve an NxPT (i.e. NBPT and NPPT) concentration of 550 ppm in urea. After 1 minute of mixing, the molten urea was poured onto an aluminum tray and let cool down at room temperature for 30 min. Afterwards, the urea was broken up in pieces of 1-6 mm and stored in closed polyethylene bottles at 30° C. and 40° C. After 2 and 6 months samples were taken and analyzed for active ingredient concentration. […] The resulting NxPT concentrations from both measurements were averaged.

[3] = granulated urea, 0.055 wt.-% NBPT+NPPT; closed storage 20° C., 30° C., 40° C., up to 12 months; compared to samples containing PEI
Procedure: In a test plant, urea was granulated in a fluidized bed granulator having a cylindrical fluidized bed of diameter 40 cm at a temperature of about 108° C. […] The fluidization air flowed at a superficial flow rate of about 2 m/s into the fluidized bed. An overflow was mounted 10 cm above the baseplate at the side wall of the bed. A defined amount (about 30 kg) of urea particles or urea granules having a narrow size distribution was then introduced into the granulator column as seeds for the granulation. The bed with the seeds (about 50 cm deep) was fluidized with hot air at a temperature of about 100° C., and the addition of 96 to 97% by weight urea solution at a temperature of about 135° C. was commenced as soon as the bed had reached the temperature of about 108° C. that was envisaged for the run. From a reservoir tank, the urea solution having a water content of 3-4% by weight was then introduced into the fluidized bed granulator at a rate of 300 kg/h via a spray nozzle that was operated at a temperature of about 140° C. with air, supplied at a rate of 240 kg/h. […]
Samples of the resulting urea granules were stored in closed polyethylene bottles at 20° C., 30° C. and 40° C. Samples were taken after 0, 1, 2, 3, 4, 6, and 12 months and analyzed for active ingredient concentration. From each sample 2×15 g was dissolved in 100 mL water and analyzed using HPLC method DIN_EN_16651. […]

[4] = NxPT recovery on closed storage at 30° C. of urea coated with amine-containing formulations (Example 5); assay type: physicochemical
Procedure: 3 kg of urea fertilizer granules were added to an ERWEKA mixer (dimensions mix drum: 50 cm diameter, 20 cm high). The mixer was turned on (27 RPM) and the respective amount of urease inhibitor formulation (formulations of NBPT and NPPT in DEG with additional amine were prepared as shown in Table 3 below) was sprayed onto the urea using a syringe to achieve a total NxPT concentration of 550 ppm (137.5 ppm NPPT and 412.5 ppm NBPT) on urea. The fertilizer/urease inhibitor mixture was mixed for 5 minutes. Afterwards, the treated urea was stored in closed polyethylene bottles at 30° C. Samples were taken after 1, 2, 3 and 6 months and analyzed for active ingredient concentration. […] The resulting NxPT concentrations from both measurements were averaged.

Row | SMILES | Flashpoint [1] [°C] | also measured
1 | CC(O)CO (stereo not shown) [PG, Propylene glycol] | 99 | –
2 | CC(O)C(=O)N(C)C (stereo not shown) [Agnique AMD 3L, N,N-Dimethyl lactamide] | 103 | –
3 | OCCOCCO [DEG, Diethylene glycol] | 142 | stabilizing properties on NxPT during storage of the treated urea, among the tested glycols [2]: best stabilizing properties
4 | CC(O)CN(CCO)CCO (stereo not shown) [DEIPA, Diethanol isopropanol amine] | 191 | storage stability in urea [3]: higher storage stability; performance in urease inhibitor formulations applied as coating to urea ([4]; 550 ppm NxPT sprayed onto urea granules, closed storage 30° C., 1, 2, 3 and 6 months): same performance; stabilizing effect ([4]; amine in DEG formulation of NBPT and NPPT on urea): stabilizing effect
5 | C[S+](C)[O-] [DMSO, Dimehtyl sulfoxide] | 95 | ranking of the stabilizing properties of the tested solvents [2]: DEG>DPG>PG>N,N-Agnique AMD 3L>DMSO
